In US20220079139A1, “CYCLOSPORIN ANALOG AND USE THEREOF” (Farsight Medical Technology (Shanghai) Co., Ltd., priority 2019, published 2022):

Columns and labels:
[1] = biological target: Cyclophilin A (Homo sapiens, UniProt P62937); test: Cyclophilin inhibition binding, competitive ELISA (Cyclophilin A); conditions: human recombinant cyclophilin, read-out: CypA EC50
Protocol: (§1) The cyclophilin inhibition binding activity of compounds disclosed herein was determined using a competitive ELISA adapted from the methods described by Quesniaux et al. (Eur. J Immunol., 1987, 17:1359-1365). Activated ester of succinyl spacers bound to D-Lys^8-cylosporine A (D-Lys^8-Cs) are coupled to bovine serum albumin (BSA) through D-lysyl residue in position 8. BSA is dissolved in 0.1 M borate buffer, pH 9.0 (4 mg in 1.4 ml). A hundredfold molar excess of D-Lys^8-Cs dissolved in dimethyl formamide (0.6 ml) is added dropwise to the BSA under vigorous stirring. The coupling reaction is performed for 2 to 3 hours at room temperature under mild stirring and the conjugate obtained is extensively dialyzed against phosphate-buffered saline (PBS, pH 7.4).
(§2) Microtiter Plates are coated with D-Lys^8-Cs-BSA conjugate (2 μg/ml in PBS for 24 hours at 4° C.). Titration Plates are washed with Tween®/PBS and with PBS alone. To block nonspecific binding, 2% BSA/PBS (pH 7.4) is added to the wells and allowed to incubate for 2 hours at 37° C. A five-fold dilution series of the compound to be tested is made in ethanol in a separate microtiter plate. The starting concentration is 0.1 mg/mL for assays with human recombinant cyclophilin. 198 μL of 0.1 μg/mL cyclophilin solution is added to the microtiter plate immediately followed by 2 μL of diluted cyclosporine A (used as a reference compound) or the compound of the invention. The reaction between coated BSA-Cs conjugate, free cyclosporine A and cyclophilin is allowed to equilibrate overnight at 4° C. Cyclophilin is detected with anti-cyclophilin rabbit serum diluted in PBS containing 1% BSA and incubates overnight at 4° C. Titration Plates are washed as described above. Bound rabbit antibodies are then detected by goat anti-rabbit IgG conjugated to alkaline phosphatase and diluted in 1% BSA-PBS and allowed to incubate for 2 hours at 37° C. Titration Plates are washed as described above. […] The results are expressed as an EC50, which is the concentration of the compound of the invention required to achieve 50% inhibition.

[2] = biological target: Cyclophilin D (Homo sapiens, UniProt P30405); test: Cyclophilin inhibition binding, competitive ELISA (Cyclophilin D); conditions: human recombinant cyclophilin, read-out: CypD EC50
Sequence of Cyclophilin D (P30405 30-207): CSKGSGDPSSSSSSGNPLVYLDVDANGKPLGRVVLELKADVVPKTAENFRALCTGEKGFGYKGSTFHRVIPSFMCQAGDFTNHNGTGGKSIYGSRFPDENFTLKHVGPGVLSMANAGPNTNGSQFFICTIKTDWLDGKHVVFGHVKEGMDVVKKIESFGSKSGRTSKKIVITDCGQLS
Protocol: as §1, §2

Sequence of Cyclophilin A (P62937 whole entry): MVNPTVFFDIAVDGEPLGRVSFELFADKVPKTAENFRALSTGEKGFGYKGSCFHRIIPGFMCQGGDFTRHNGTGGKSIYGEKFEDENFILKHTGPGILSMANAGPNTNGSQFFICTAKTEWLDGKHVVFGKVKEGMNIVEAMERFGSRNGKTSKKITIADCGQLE

SMILES	EC50 [1] [nM]	EC50 [2] [nM]
C/C=C/C[C@@H](C)[C@@H](O)[C@H]1C(=O)N[C@@H](CC)C(=O)N(C)[C@H](OCCN2CCCC2)C(=O)N(C)[C@@H](CC(C)C)C(=O)N[C@@H](C(C)C)C(=O)N(C)[C@@H](CC(C)C)C(=O)N[C@@H](C)C(=O)N[C@H](C)C(=O)N(C)[C@@H](CC(C)C)C(=O)N(C)[C@@H](CC(C)C)C(=O)N(C)[C@@H](C(C)C)C(=O)N1C [Entry 7]	12	1200
C/C=C/C[C@@H](C)[C@@H](O)[C@H]1C(=O)N[C@@H](CC)C(=O)N(C)[C@H](OCCN2CCC2)C(=O)N(C)[C@@H](CC(C)C)C(=O)N[C@@H](C(C)C)C(=O)N(C)[C@@H](CC(C)C)C(=O)N[C@@H](C)C(=O)N[C@H](C)C(=O)N(C)[C@@H](CC(C)C)C(=O)N(C)[C@@H](CC(C)C)C(=O)N(C)[C@@H](C(C)C)C(=O)N1C [Entry 5]	66	

Further compounds by falling EC50 [1], results first:

EC50 [1] [nM]	EC50 [2] [nM]	SMILES
202	3550	C/C=C/C[C@@H](C)[C@@H](O)[C@H]1C(=O)N[C@@H](CC)C(=O)N(C)[C@H](OCCN(C)C(C)C)C(=O)N(C)[C@@H](CC(C)C)C(=O)N[C@@H](C(C)C)C(=O)N(C)[C@@H](CC(C)C)C(=O)N[C@@H](C)C(=O)N[C@H](C)C(=O)N(C)[C@@H](CC(C)C)C(=O)N(C)[C@@H](CC(C)C)C(=O)N(C)[C@@H](C(C)C)C(=O)N1C [Entry 2]
118	2500	C/C=C/C[C@@H](C)[C@@H](O)[C@H]1C(=O)N[C@@H](CC)C(=O)N(C)[C@H](OCCN2CCCCC2)C(=O)N(C)[C@@H](CC(C)C)C(=O)N[C@@H](C(C)C)C(=O)N(C)[C@@H](CC(C)C)C(=O)N[C@@H](C)C(=O)N[C@H](C)C(=O)N(C)[C@@H](CC(C)C)C(=O)N(C)[C@@H](CC(C)C)C(=O)N(C)[C@@H](C(C)C)C(=O)N1C [Entry 6]
14		C/C=C/C[C@@H](C)[C@@H](O)[C@H]1C(=O)N[C@@H](CC)C(=O)N(C)[C@H](OCCCN)C(=O)N(C)[C@@H](CC(C)C)C(=O)N[C@@H](C(C)C)C(=O)N(C)[C@@H](CC(C)C)C(=O)N[C@@H](C)C(=O)N[C@H](C)C(=O)N(C)[C@@H](CC(C)C)C(=O)N(C)[C@@H](CC(C)C)C(=O)N(C)[C@@H](C(C)C)C(=O)N1C [Entry 3]
